The subject of this assay is male C57Bl6J mice. Briefly: Metabolic efficiency. The class given is in vivo. The following applies: insulin 20 nmol/kg daily i.p., n=8.

Turning to insulin, the nocturnal chow intake entry is recorded as “slight decrease”.

Values taken from paper doi:10.1101/2020.07.11.198341v1 (bioRxiv, 2020).
